Test results: paper PMC10053059, “Intraocular siRNA Delivery Mediated by Penetratin Derivative to Silence Orthotopic Retinoblastoma Gene” (Pharmaceutics, 2023)
Where no end group is shown, it is not given here.

Key:
[1] = tested on: ARPE-19 cells; experiment: Intracellular co-localization, laser scanning confocal microscopy; format: cell-based, Human; details: ARPE-19, 1 µg/mL siRNA, serum-free medium, 4 h
Protocol: ARPE-19 cells in the logarithmic growth phase were seeded in confocal dishes with a density of 5000 cells/well and incubated for 24 h with 5% CO2 at 37 °C. After administration with various polyplexes at a final concentration of 1 µg/mL siRNA, the cells were further cultured in serum-free medium for 4 h. Then, the cells were washed with 0.2% (m/v) heparin sodium solution three times, fixed with 4% (m/v) paraformaldehyde solution for 5 min, stained with 1 µg/mL 4’,6-diamidino-2-phenylindole (DAPI) solution for 10 min, and moisturized with 50% (v/v) glycerol.

[2] = tested on: ARPE-19 cells; experiment: Cellular uptake pathway, dual-label flow cytometry with uptake inhibitors; format: cell-based, Human; details: ARPE-19, inhibitors of Table S1, n = 3 (Figure S4)
Protocol: (§1) For quantitative analysis of cellular uptake of different formulations, ARPE-19 cells and WERI-Rb-1 cells in the logarithmic growth phase were inoculated in 12-well plates with 50,000 cells in each well (n = 3), as mentioned above. After being incubated with various formulations at a final concentration of 1 µg/mL siRNA, the cells were trypsinized with 0.25% trypsin-EDTA, collected in Eppendorf tubes, and centrifuged at 1000 rpm for 5 min. The precipitated cells were subsequently suspended, washed twice in 200 μL phosphate buffer saline (PBS), and analyzed using a flow cytometer (Beckman, Brea, CA, USA). The percentage of FAM-positive cells in total viable cells was defined as the uptake efficiency. The effects of various inhibitors on cellular uptake were also assessed.
(§2) Table S1. Cellular uptake inhibitors and their function mechanisms
(§3) Inhibitor Final Mechanism of action
(§4) Filipin 20 μg/mL Bind to cholesterol on the cell membrane and inhibit endocytosis
(§5) Mß-CD 300 μg/mL Deplete cholesterol and suppress endocytosis
(§6) Genistein 20 μg/mL Inhibit lipid raft/caveolae mediated endocytosis
(§7) Colchicine 20 μg/mL Inhibit pinocytosis by binding to tubulin to prevent microtubule
(§8) Dynasore 20 μg/mL Inhibit […] in clathrin -mediated endocytosis
(§9) Figure S1. Polyacrylamide gel electrophoresis of primary polyplexes siRNA/PA. The ratio is N/P
(§10) of 3rd generation PAMAM to siRNA. […]

[3] = tested on: WERI-Rb-1 cells; experiment: as above; format: cell-based, Human; details: WERI-Rb-1, inhibitors of Table S1, n = 3 (Figure S4)
Protocol: as §1, §2, §3, §4, §5, §6, §7, §8, §9, §10

[4] = tested on: eyes, retina; details: in vivo; cited from earlier work
Description: We previously screened out penetratin from several of the most commonly reported cell-penetrating peptides based on the ex vivo permeability in excised cornea and in vivo ocular distribution. In a subsequent study, we optimized wild-type penetratin via amino acid mutation to further improve its permeability, and obtained a series of derivative peptides, which could be used as potential ocular absorption enhancers with low toxicity. […] Therefore, we chose 89WP to ...

| Sequence | internalization by cells (confocal observation) [1] | effect of uptake inhibitors on cellular uptake of single fluorescence-labeled material [2] | effect of uptake inhibitors on cellular uptake of single fluorescence-labeled material [3] | distribution in the eyes after topical instillation [4] |
| --- | --- | --- | --- | --- |
| RQIKIWFWWRRMKWKK [89WP-FAM, 5-carboxyfluorescein-labeled 89WP] | could be well internalized by the cells and distributed around the nuclei | did not affect cellular uptake | did not affect cellular uptake |  |
| RQIKIWFWWRRMKWKK [89WP] |  |  |  | showed more distribution in the eyes, especially in the retina |
